These results are taken from US10899764B2, “Imidazo isoindole derivative, preparation method therefor and medical use thereof” (Jiangsu Hengrui Medicine Co., Ltd., priority 2015, dated 2021).

Structures can show the parent of a compound that is named as a salt. Where two headings read alike, the source gives them in different places.

For one series, the target named is human TDO (Homo sapiens (Human), UniProt P48775). Nature of the series: Inhibition activity on human TDO (tryptophan 2,3-dioxygenase) (enzyme assay, absorbance at 480 nm). It counts as biochemical. The following applies: read-out: IC50 for inhibiting the activity of human TDO. Here is the method:
Assay for Determining the Inhibition activity of the Compounds of the Present Invention on Human TDO (tryptophan 2,3-dioxygenase)
Human TDO activity was tested in vitro by the following method.
This method is used to determine the inhibition effect of the compounds of the present invention on the activity of human TDO.
Plasmids constructed with the human TDO gene were transferred to competent Escherichia coli Rosseta. The TDO gene was scaled-up by culturing in liquid LB (Luria-Bertani) medium [which was prepared per liter according to “Molecular Cloning A Laboratory Manual” (J. Sambrook, D. W. Russell)]). The bacteria were collected and lysed by ultrasonic waves. The purified TDO was obtained by eluting from a column.
For testing, 24 μL of enzyme (TDO) was diluted 100 times with 50 mM KPB to 2400 μL. The concentration of the enzyme solution was 2.6 ng/μL. A 96 well reaction plate (AXYGEN, PCR-96-FLT-C) (hereinafter referred to as the “reaction plate”) was added with the enzyme solution at 24 μL/well. The blank well was added with 24 μL of KPB [Preparation of KPB buffer (50 mM): 6.805 g of KH2PO4 was weighed using an analytical balance, and placed into a 1000 mL beaker, deionized water was added with a measuring cylinder to 900 mL, the pH was adjusted to 6.5 by 1M KOH, then the mixture was introduced into a 1 L measuring cylinder, and water was added to 1 L. It was stored at 4° C.]. Then, 1 μL of a compound or DMSO was added into the corresponding wells in the reaction plate. Preparation of solution A: 200 μL of 500 mM L-sodium ascorbate was added with 1050 μL of KPB, then the mixture was mixed uniformly for 3 seconds at the maximum speed in a turbine mixer. Solution B: 100 μL of 10 mM tryptophan was added with 100 μL of 100,000 unit/ml catalase, 5 μL of 10 mM methylene blue, and 1050 μL of KPB successively, then the mixture was mixed uniformly for 3 seconds at the maximum speed in a turbine mixer. Then, 1200 μL of solution A and 1200 μL of solution B were taken and mixed uniformly for 3 seconds at the maximum speed in a turbine mixer. The mixture was added to the reaction plate at 24 μL/well. The reaction plate was placed in a plate centrifuge and centrifuged for 15 seconds at the maximum speed, so that the reaction liquids converged to the bottom. The reaction mixture was mixed uniformly for 30 seconds on a shaker, and incubated for 1 hour at 37° C. in a constant temperature incubator. In the reaction plate, 30% (W/V) trichloroacetic acid was added at 10 μL/well, then the mixture was incubated for 15 minutes at 65° C. in a incubator. The reaction plate was centrifuged in a centrifuge for 5 minutes at 4700 RPM at room temperature. […] Then, 2% (W/V) 4-(dimethylamino)benzaldehyde/glacial acetic acid solution was added at 40 μL/well, then the mixture was mixed uniformly for 1 minute on a shaker at the maximum speed. After incubation for 2 minutes at room temperature, the absorbance at 480 nm was read on a Synergy HT Reader.
The inhibition activity of the compounds of the present invention on human TDO was tested by the assay described above.

Series [1] in a line: Pharmacokinetics assay in SD rats after intragastrical administration. It counts as in vivo. The following applies: both sexes, Sprague-Dawley, rat, plasma, po, intragastric, 10 mg/kg. The procedure: Sprague-Dawley (SD) rats were used as test animals. […] The pharmacokinetic behavior of the compounds of the present invention was studied and evaluated in rats.
Eight (8) healthy adult SD rats, half male and half female, were purchased from SINO-BRITSH SIPPR/BK LAB. […]
The samples were stored in heparinized test tubes, and centrifuged for 10 minutes at 3,500 rpm to separate blood plasma. The plasma samples were stored at −20° C. The rats were fed 2 hours after administration.
(§1) The concentration of the test compounds in rat plasma after intragastric administration was determined by LC/MS/MS.

Series [2] in a line: Pharmacokinetics assay in c57bl/6 mice after intragastric administration. Format: in vivo. Conditions: mouse, plasma, po, female c57bl/6 mice, 3 mg/kg. Here is the method:
c57bl/6 mice were used as test animals. […] The pharmacokinetic behavior of the compounds of the present invention was studied and evaluated in c57bl/6 mice.
Eighteen (18) female c57bl/6 mice, were purchased from SINO-BRITSH SIPPR/BK LAB. ANIMAL LTD., CO.
The appropriate amount of each test compound was weighed, and added with 0.5% CMC-Na to prepare a 1 mg/mL suspension by an ultrasonic method.
After an overnight fast, 18 female c57bl/6 mice were equally divided into 2 groups, 9 mice per group, and administered the test compounds intragastrically at an administration volume of 0.2 mL/kg.
The samples were stored in heparinized test tubes, and centrifuged for 10 minutes at 3,500 rpm to separate blood plasma. The plasma samples were stored at −20° C.
as §1

[3] abbreviates: read-out: Apparent Distribution Volume Vz/F.
Where [4] appears, read: read-out: Mean Residence Time MRT.

As a reminder, the IC50 is the concentration at which inhibition is half-maximal. As usually defined, the AUC is the area under the concentration-time curve, a measure of exposure. The term half-life denotes the time in which the quantity being followed falls by half. As a reminder, the MRT is the average time that molecules of a dose stay in the body. A word on the Cmax: it is the peak of the concentration-time curve.

Chain of human TDO (P48775 whole entry): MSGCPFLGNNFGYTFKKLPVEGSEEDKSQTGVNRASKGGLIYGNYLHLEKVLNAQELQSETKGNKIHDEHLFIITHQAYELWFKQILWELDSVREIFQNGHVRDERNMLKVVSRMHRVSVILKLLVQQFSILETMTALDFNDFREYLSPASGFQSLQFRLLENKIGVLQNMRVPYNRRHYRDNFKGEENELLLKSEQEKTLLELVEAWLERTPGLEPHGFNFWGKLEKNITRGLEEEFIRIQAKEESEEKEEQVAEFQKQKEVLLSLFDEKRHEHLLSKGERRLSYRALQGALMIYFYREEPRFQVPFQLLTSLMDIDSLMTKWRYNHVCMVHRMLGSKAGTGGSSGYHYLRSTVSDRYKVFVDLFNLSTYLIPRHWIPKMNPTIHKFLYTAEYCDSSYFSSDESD

Regarding `Fc1cccc(N2CCC(C3c4c(F)cccc4-c4cncn43)CC2)c1` (centres unmarked) [Example 3, 6-fluoro-5-(1-(3-fluorophenyl)piperidin-4-yl)-5H-imidazo[5,1-a]isoindole trifluoroacetate], the IC50 at human TDO was 0.371 µM. In series [1] (setting [3]), the Vd/F came to 14.1 ± 1.72 L/kg. Further, in series [1] (read-out: Area Under Curve AUC), the AUC was 2.62 ± 0.977 µg·h/mL. In addition, the CL/F in series [1] (read-out: Clearance CLz/F) is 4.25 ± 1.58 L/h/kg. Also, the half-life in series [1] (read-out: Half-Life T½ (converted)) is 2.54 ± 0.91 h. Moreover, the MRT in series [1] (setting [4]) was found to be 2.72 ± 0.36 h. For the same molecule, in series [1] (read-out: Plasma Conc. Cmax), the Cmax was found to be 1.07 ± 0.524 µg/mL.
For the molecule `OCCn1cc(-c2ccc(N3CCC([C@H]4c5c(F)cccc5-c5cncn54)CC3)cc2)cn1` [Example 41, (S)-2-(4-(4-(4-(6-fluoro-5H-imidazo[5,1-a]isoindol-5-yl)piperidin-1-yl)phenyl)-1H-pyrazol-1-yl)ethanol], the half-maximal inhibitory concentration (IC50) at human TDO (purified recombinant human TDO, 1 hour at 37° C.) is 0.042 µM. Besides, in series [2] (setting [3]), the Vd/F came out at 1.28 L/kg. Also, the AUC in series [2] (read-out: Area Under Curve AUC) worked out at 4.63 µg·h/mL. Also, the CL/F in series [2] (read-out: Clearance CLz/F) came out at 0.648 L/h/kg. Further, the half-life in series [2] (read-out: Half-Life t½ (converted)) is 2.06 h. The MRT in series [2] (setting [4]) amounted to 1.36 h. The Cmax in series [2] (read-out: Plasma Conc. Cmax) amounted to 1.67 µg/mL.
